{"source": "ChEMBL document CHEMBL1201862", "about": "“PubChem BioAssay data set” (2004)", "key": {"[1]": {"assay": "growth suppression of beta-catenin-knockout colon cells, dose response, cell-based, HCT116, human colon tumor (AID 1045);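 note: HCT116 colon tumor cells with beta catenin knocked out; cells exposed to compound for 60 hours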", "format": "functional"}, "[2]": {"molecular_target": "T1, Replicative DNA helicase DnaB (Mycobacterium tuberculosis, UniProt P9WMR3)", "T1 sequence (P9WMR3 whole entry)": "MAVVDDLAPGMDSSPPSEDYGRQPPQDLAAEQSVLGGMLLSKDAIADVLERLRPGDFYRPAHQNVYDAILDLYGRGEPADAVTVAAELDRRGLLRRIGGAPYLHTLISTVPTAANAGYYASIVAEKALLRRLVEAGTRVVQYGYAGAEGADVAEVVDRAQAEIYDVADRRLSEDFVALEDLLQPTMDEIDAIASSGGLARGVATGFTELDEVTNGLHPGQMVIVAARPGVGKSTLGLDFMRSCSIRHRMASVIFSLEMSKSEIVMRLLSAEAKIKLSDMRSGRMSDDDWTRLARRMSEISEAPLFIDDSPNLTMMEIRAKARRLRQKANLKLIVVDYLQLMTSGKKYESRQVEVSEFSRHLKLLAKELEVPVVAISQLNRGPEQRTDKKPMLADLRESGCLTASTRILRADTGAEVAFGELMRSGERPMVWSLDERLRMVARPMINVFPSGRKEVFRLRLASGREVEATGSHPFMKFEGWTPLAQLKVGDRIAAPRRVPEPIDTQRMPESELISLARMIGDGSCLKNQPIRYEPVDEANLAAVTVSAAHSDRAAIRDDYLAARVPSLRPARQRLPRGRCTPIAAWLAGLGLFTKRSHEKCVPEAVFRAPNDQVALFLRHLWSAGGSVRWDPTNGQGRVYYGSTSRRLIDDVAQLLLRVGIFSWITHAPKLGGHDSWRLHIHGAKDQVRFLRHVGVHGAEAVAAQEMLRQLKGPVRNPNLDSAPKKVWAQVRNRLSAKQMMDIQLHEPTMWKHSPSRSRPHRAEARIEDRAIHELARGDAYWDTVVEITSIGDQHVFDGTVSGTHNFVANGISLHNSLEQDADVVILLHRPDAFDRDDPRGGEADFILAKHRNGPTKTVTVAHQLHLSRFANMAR", "assay": "DnaB intein splicing inhibitors, dose response, biochemical, cell-free fluorescence (AID 449749)", "format": "functional"}, "[3]": {"tested_on": "HeLa", "assay": "Cytotoxicity counterscreen assay for transcriptional activators of heat shock protein 70 (Hsp70). [Related pubchem assays: 1203, 1252 ]", "format": "functional", "conditions": "Homo sapiens"}, "[4]": {"molecular_target": "T2, High affinity choline transporter 1 (Homo sapiens, UniProt Q9GZV3)", "T2 sequence (Q9GZV3 whole entry)": "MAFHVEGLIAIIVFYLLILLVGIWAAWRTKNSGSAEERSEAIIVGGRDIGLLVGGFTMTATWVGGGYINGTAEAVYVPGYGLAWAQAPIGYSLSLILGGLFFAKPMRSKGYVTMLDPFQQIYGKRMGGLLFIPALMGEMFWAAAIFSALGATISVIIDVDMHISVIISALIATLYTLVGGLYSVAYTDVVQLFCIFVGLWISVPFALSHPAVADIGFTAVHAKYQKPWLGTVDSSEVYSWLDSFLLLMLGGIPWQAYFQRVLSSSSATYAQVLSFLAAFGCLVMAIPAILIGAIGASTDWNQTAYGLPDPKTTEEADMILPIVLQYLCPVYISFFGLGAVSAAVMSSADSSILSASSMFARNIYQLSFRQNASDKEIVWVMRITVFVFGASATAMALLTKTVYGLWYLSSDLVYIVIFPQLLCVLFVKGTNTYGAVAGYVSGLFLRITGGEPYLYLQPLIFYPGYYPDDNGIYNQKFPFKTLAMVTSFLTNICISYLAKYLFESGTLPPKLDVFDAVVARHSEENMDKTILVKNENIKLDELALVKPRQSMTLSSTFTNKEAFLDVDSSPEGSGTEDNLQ", "assay": "CHT inhibitors, dose response, cell-based, 5-point CRC, membrane potential dye (AID 504840)", "format": "functional"}, "[5]": {"assay": "growth suppression of PTEN-null colon cells, dose response, cell-based, HCT116 PTEN knockout (AID 1047);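 note: HCT116 colon tumor cells with PTEN knocked out; cells exposed to compound for 60 hours before readout; potency for loss of cell viability measured by luminescence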", "format": "functional"}, "[6]": {"molecular_target": "T3, Protein RecA (Mycobacterium tuberculosis, UniProt P9WHJ3)", "T3 sequence (P9WHJ3 whole entry)": "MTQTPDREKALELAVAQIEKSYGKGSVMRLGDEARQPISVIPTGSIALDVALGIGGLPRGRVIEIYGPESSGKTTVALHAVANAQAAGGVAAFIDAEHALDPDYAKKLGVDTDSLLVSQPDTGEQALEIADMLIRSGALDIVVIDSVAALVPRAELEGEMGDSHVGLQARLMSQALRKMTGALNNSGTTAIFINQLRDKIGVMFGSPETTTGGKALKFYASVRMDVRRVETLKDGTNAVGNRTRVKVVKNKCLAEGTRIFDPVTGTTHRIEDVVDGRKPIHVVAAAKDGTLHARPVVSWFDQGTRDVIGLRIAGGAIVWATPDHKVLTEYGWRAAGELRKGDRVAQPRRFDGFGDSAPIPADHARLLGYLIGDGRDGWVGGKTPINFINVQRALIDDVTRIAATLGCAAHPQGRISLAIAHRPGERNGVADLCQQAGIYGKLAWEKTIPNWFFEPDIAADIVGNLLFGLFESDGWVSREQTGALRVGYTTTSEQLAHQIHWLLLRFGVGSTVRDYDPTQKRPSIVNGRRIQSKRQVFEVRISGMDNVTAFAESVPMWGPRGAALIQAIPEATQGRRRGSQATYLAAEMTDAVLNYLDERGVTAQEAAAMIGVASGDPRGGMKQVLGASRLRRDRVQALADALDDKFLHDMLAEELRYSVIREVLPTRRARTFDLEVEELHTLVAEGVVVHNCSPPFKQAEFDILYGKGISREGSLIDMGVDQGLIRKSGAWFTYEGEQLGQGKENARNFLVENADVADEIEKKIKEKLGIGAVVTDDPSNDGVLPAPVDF", "assay": "Fluorescence Cell-Free Homogeneous Dose Retest to Identify Inhibitors of RecA-Intein Splicing Activity. [Related pubchem assays (depositor defined):AID2097, AID2223, AID489010, AID492950]", "format": "functional"}, "[7]": {"molecular_target": "T4, Bcl-2-like protein 10 (Homo sapiens, UniProt Q9HD36)", "T4 sequence (Q9HD36 whole entry)": "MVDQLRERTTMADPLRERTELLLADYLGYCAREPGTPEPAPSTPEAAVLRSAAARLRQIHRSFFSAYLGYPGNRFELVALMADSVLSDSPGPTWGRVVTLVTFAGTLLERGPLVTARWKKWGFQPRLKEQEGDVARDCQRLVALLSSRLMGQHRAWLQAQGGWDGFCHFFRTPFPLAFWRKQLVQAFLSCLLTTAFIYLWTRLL", "assay": "Biochemical TR3 FP assay of Bcl-B inhibitor potency, EC50 (AID 1243)", "format": "functional"}, "[8]": {"molecular_target": "Cytochrome P450 3A4 (Homo sapiens, UniProt P08684)", "sequence (P08684 whole entry)": "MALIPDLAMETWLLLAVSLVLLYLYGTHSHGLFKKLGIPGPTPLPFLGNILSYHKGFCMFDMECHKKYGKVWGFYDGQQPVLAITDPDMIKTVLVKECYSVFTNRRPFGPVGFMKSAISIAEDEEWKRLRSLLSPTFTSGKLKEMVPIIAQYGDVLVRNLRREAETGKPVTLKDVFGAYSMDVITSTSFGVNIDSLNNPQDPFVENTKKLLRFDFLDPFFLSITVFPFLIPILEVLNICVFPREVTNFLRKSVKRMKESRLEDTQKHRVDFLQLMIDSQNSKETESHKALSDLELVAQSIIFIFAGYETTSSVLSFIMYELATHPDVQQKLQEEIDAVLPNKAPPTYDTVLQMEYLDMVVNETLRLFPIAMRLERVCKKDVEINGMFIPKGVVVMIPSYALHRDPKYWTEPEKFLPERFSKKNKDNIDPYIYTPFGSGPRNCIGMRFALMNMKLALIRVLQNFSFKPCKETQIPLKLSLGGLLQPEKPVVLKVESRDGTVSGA", "conditions": "Potency"}, "[9]": {"molecular_target": "Procathepsin L (Homo sapiens, UniProt P07711)", "sequence (P07711 whole entry)": "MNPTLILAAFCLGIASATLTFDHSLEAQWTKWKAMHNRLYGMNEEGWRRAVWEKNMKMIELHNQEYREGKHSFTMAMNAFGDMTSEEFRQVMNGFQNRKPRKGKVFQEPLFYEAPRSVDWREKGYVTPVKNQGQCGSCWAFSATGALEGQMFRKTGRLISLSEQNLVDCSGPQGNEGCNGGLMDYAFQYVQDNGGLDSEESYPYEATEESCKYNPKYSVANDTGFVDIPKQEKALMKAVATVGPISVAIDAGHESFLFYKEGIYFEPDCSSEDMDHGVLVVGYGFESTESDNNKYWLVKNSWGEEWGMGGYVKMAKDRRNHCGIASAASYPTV"}, "[10]": {"molecular_target": "Aspartyl aminopeptidase (Plasmodium falciparum 3D7, UniProt Q8I2J3)", "sequence (Q8I2J3 whole entry)": "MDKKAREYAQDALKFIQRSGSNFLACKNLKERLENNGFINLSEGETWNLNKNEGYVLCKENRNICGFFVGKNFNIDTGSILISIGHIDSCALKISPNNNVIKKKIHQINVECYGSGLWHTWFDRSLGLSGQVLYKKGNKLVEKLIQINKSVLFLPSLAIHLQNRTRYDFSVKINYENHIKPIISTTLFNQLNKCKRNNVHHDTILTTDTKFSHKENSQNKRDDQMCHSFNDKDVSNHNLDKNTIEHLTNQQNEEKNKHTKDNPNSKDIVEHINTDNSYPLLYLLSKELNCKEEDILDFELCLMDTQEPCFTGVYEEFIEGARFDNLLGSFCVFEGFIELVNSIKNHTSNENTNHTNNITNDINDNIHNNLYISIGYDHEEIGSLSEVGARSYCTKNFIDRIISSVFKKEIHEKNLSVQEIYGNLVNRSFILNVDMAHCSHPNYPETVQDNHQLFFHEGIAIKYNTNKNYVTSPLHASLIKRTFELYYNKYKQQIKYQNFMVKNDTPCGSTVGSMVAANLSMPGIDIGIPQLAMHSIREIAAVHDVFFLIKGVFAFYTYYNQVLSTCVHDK"}}, "note": "Calls of active or inactive are those of the source.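 Throughout, for CC50: cells exposed to compound for 16 hours before readout.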"}
{"compound": "Cc1cc(C(=O)Cn2ncc(Cl)c(Cl)c2=O)c(C)n1CC(F)(F)F", "values": [{"measurement": "EC50", "setting": "[1]", "value": "2.06 µM (active)"}, {"measurement": "AC50", "setting": "[2]", "value": "3.01 µM (active)"}, {"measurement": "CC50", "setting": "[3]", "value": "> 11 µM (not active)"}, {"measurement": "IC50", "setting": "[4]", "value": "20.9 µM (active)"}, {"measurement": "EC50", "setting": "[5]", "value": "3.03 µM (active)"}, {"measurement": "EC50", "setting": "[6]", "value": "2.72 µM (active)"}]}
{"compound": "O=C(O)c1cccc(-c2ccc(/C=N/Nc3ccc([N+](=O)[O-])cn3)o2)c1", "values": [{"measurement": "EC50", "setting": "[7]", "value": "9.64 µM (active)"}]}
{"compound": "CC1(C)CC(=O)c2c(oc3cc(O)c(O)cc23)C1", "values": [{"measurement": "AC50", "setting": "[8]", "value": "31.6 µM (inconclusive)"}, {"measurement": "IC50", "setting": "[9]", "value": "> 59.6 µM (not active)"}, {"measurement": "IC50", "setting": "[10]", "value": "1.25 µM (active)"}]}
